Our source for the EC50 values is patent publication US20260103471A1, “CYCLIC UREA THIAZOLYL COMPOUNDS FOR TREATMENT OF HSV” (Assembly Biosciences, Inc., priority 2022, published 2026).

Molecules are shown by their SMILES. Like-named read-outs stand apart in the source and are kept apart here.

One test has as its system HSV-2 G strain. In words: HSV-2 Antiviral Assay (Vero cells, cell viability). Type of test: cell-based. As to conditions: Vero cells, 5 days. The gist of the method: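 Vero cells (1.0×10^4/well, attached overnight) given 8-point 3-fold compound dilutions (0.5% DMSO) then infected with 160 TCID50 HSV-2 G strain in 2% FBS medium for 5 days at 37 °C. Protection read as cell viability by WST-8 absorbance at 460 and 620 nm after 3 h.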

The next test has as its system HSV-1. Put plainly: HSV-1 Antiviral Assay (Vero cells, cell viability). The test is classed as cell-based. As to conditions: Vero cells, read-out: HSV-1 EC50. How it is done: Vero cells were cultured in Dulbecco's Modified Eagle Medium (DMVEM) supplemented with […] and 100 units/mL penicillin and streptomycin. The cells were passaged 2-3 times per week to maintain sub-confluent densities.
Vero cells were seeded into 96-well plates at a density of 2.5×10^3 cells per well and allowed to attach overnight. Following attachment, the media was replaced with 50 μL of infection medium (DMVEM supplemented with 2% fetal bovine serum and 100 units/mL penicillin and streptomycin). A Tecan D300e digital dispenser was then used to add compounds to the culture using an 8-point 3-fold serial dilution format. The DMSO concentration was normalized to 0.5% for all treatments. Following compound addition, 50 μL of infection medium containing 80 TCID50 HSV-1 was added to the cells and incubated at 37° C. for 4 days. After the incubation, the plates were equilibrated to room temperature, the media was removed, and […] a 1:1 dilution of Cell titer glow and phosphate buffered saline was added to the cells. Following a 5-minute incubation, cell viability was quantified by measuring luminance using a Tecan Infinite M1000 Pro plate reader.

Where [1] appears, read: Human alphaherpesvirus 2, Vero, 120 h, 160 TCID50 HSV-2 G strain, cell viability.
Where [2] appears, read: Human alphaherpesvirus 1, 96 h, 80 TCID50 HSV-1, 4 days, cell viability.

As for `Cc1nc(N2CCCN([C@H](C)c3cccc(-c4cc(F)ccc4F)c3)C2=O)sc1S(N)(=O)=O` (single isomer, unassigned) [Compound 176], the EC50 with HSV-2 G strain (setting [1]) and with HSV-1 (setting [2]) was 1000 to 5000 nM throughout. In the case of `Cc1nc(N2CCCN(c3cccc(-c4cc(F)ccc4F)c3)C2=O)sc1S(N)(=O)=O` [Compound 16], the EC50 with HSV-2 G strain (setting [1]) and in the test on HSV-1 (setting [2]) was 100 to 1000 nM each time. Turning to `Cc1csc(-c2ccc(N3CCCN(c4nc(C)c(S(N)(=O)=O)s4)C3=O)cc2)n1` [Compound 43], the EC50 with HSV-2 G strain (setting [1]) and in the test with HSV-1 (setting [2]) was under 100 nM in each case. With `C#Cc1ccc(F)c(-c2ccc(N3CCCN(c4nc(C)c(S(N)(=O)=O)s4)C3=O)cc2)c1` [Compound 17, 2-(3-(5′-Ethynyl-2′-fluoro-[1,1′-biphenyl]-4-yl)-2-oxotetrahydropyrimidin-1(2H)-yl)-4-methylthiazole-5-sulfonamide], the 50% effective concentration (EC50) in the test with HSV-2 G strain (setting [1]) and in the test on HSV-1 (setting [2]) was under 100 nM each time. In the case of `Cc1nc(N2CCCN(c3ccc(-c4ncc(C(F)(F)F)s4)cc3)C2=O)sc1S(N)(=O)=O` [Compound 45], the EC50 in the test on HSV-2 G strain (setting [1]) and in the test with HSV-1 (setting [2]) was 1000 to 5000 nM each time. For `Cc1nc(N2CCCN(c3ccc(-c4ccccn4)cc3)C2=O)sc1S(N)(=O)=O` [Compound 1, 4-Methyl-2-(2-oxo-3-(4-(pyridin-2-yl)phenyl)tetrahydropyrimidin-1(2H)-yl) thiazole-5-sulfonamide], the EC50 in the test on HSV-2 G strain (setting [1]) and with HSV-1 (setting [2]) was under 100 nM each time. As to `Cc1nc(N2CCCN(c3ccc(-c4ccncc4)cc3)C2=O)sc1S(N)(=O)=O` [Compound 3], the EC50 in the test on HSV-2 G strain (setting [1]) and with HSV-1 (setting [2]) was 100 to 1000 nM each time. `Cc1nc(N2CCCN(c3ccc(-c4ccccn4)cc3)C2=O)sc1S(=O)(=O)NC1CC1` [Compound 119]: the EC50 with HSV-2 G strain (setting [1]) and with HSV-1 (setting [2]) was under 100 nM each time. In the case of `Cc1nc(N2CCCN(c3ccc(-c4cccc5c4CC(=O)N5C)cc3)C2=O)sc1S(N)(=O)=O` [Compound 77], the concentration for a half-maximal effect (EC50) in the test with HSV-2 G strain (setting [1]) and in the test on HSV-1 (setting [2]) was 100 to 1000 nM in each case. For the compound `CNS(=O)(=O)c1sc(N2CCCN(c3ccc(-c4cc(F)ccn4)cc3)C2=O)nc1C` [Compound 121], the EC50 in the test on HSV-2 G strain (setting [1]) and with HSV-1 (setting [2]) was under 100 nM each time.

Take `Cc1nc(N2CCCN(c3ccc(-c4cc(F)cc5nonc45)cc3)C2=O)sc1S(N)(=O)=O` [Compound 245]: the EC50 in the test on HSV-2 G strain (setting [1]) and in the test with HSV-1 (setting [2]) was under 100 nM in each case. Consider `Cc1nc(N2CCCN(c3ccc(-c4cccc5ncccc45)cc3)C2=O)sc1S(N)(=O)=O` [Compound 84], for which the EC50 with HSV-2 G strain (setting [1]) is under 100 nM; with HSV-1 (setting [2]) it was 100 to 1000 nM. Take `Cc1nc(N2CCCN(Cc3cccc(-c4ccccc4)c3)C2=O)sc1S(N)(=O)=O` [Compound 173]: the EC50 with HSV-2 G strain (setting [1]) and in the test on HSV-1 (setting [2]) was under 100 nM in each case. Turning to `COCc1ccc(F)cc1-c1ccc(N2CCCN(c3nc(C)c(S(N)(=O)=O)s3)C2=O)cc1` [Compound 209], the EC50 with HSV-2 G strain (setting [1]) and in the test on HSV-1 (setting [2]) was under 100 nM each time. `Cc1nc(N2CCCN(c3ccc(-c4cc(F)cc5c4cc(C#N)n5C)cc3)C2=O)sc1S(N)(=O)=O` [Compound 293]: the EC50 with HSV-2 G strain (setting [1]) and in the test on HSV-1 (setting [2]) was under 100 nM throughout. With `Cc1nc(N2CCCN(c3ccc(-c4ccc5c(cnn5C)c4)cc3)C2=O)sc1S(N)(=O)=O` [Compound 52], the concentration for a half-maximal effect (EC50) with HSV-2 G strain (setting [1]) and in the test with HSV-1 (setting [2]) was 1000 to 5000 nM in each case.

Take `Cc1nc(N2CC3(CC3)CN(c3ccc(-c4cc(F)ccc4F)cc3)C2=O)sc1[S@@](C)(=N)=O` (single isomer, unassigned) [Compound 157]: the results for the EC50 in the test with HSV-2 G strain (setting [1]) and in the test on HSV-1 (setting [2]) were under 100 nM and 100 to 1000 nM, respectively.

Consider `Cc1nc(N2C[C@H](C(C)(C)O)CN(c3ccc(-c4cc(F)ccc4F)cc3)C2=O)sc1S(N)(=O)=O` (single isomer, unassigned) [Compound 343], for which the EC50 in the test with HSV-2 G strain (setting [1]) and with HSV-1 (setting [2]) was under 100 nM each time.

On to `Cc1nc(N2CCCN(c3ccc(-c4ccnn4C)cc3)C2=O)sc1S(N)(=O)=O` [Compound 40], for which the EC50 in the test with HSV-2 G strain (setting [1]) and with HSV-1 (setting [2]) was 1000 to 5000 nM each time.

For `Cc1nc(N2CCN(c3ccc(-c4cc(F)ccc4F)cc3)C2=O)sc1S(N)(=O)=O` [Example 104], the 50% effective concentration (EC50) with HSV-2 G strain (Human alphaherpesvirus 2, Vero, 120 h) was over 2000 nM; in the test on HSV-1 (Human alphaherpesvirus 1, 96 h, 4 days), 1740 nM. On to `Cc1nc(N2CCCN(c3ccc(-c4ccccc4F)c(F)c3)C2=O)sc1S(=O)(=O)NC1CC1` [Compound 133], for which the EC50 in the test with HSV-2 G strain (setting [1]) and in the test on HSV-1 (setting [2]) was under 100 nM each time. Take `Cc1nc(N2CCCN(c3ccc(-c4cccc5cn[nH]c45)cc3)C2=O)sc1S(N)(=O)=O` [Compound 54]: the concentration for a half-maximal effect (EC50) in the test with HSV-2 G strain (setting [1]) and in the test on HSV-1 (setting [2]) was 100 to 1000 nM in each case.

As to `Cc1nc(N2CCCN(c3ccc(-c4ccccn4)c(F)c3)C2=O)sc1S(N)(=O)=O` [Compound 97], the EC50 in the test with HSV-2 G strain (setting [1]) and in the test with HSV-1 (setting [2]) was under 100 nM throughout. On to `Cc1nc(N2CCCN(c3ccc(-c4ccccc4C(F)F)cc3)C2=O)sc1S(N)(=O)=O` [Compound 12], for which the concentration for a half-maximal effect (EC50) in the test on HSV-2 G strain (setting [1]) and in the test on HSV-1 (setting [2]) was under 100 nM throughout. In the case of `Cc1nc(N2CCCN(c3ccc(-c4cccc(F)c4)cc3)C2=O)sc1S(N)(=O)=O` [Compound 13], the EC50 in the test on HSV-2 G strain (setting [1]) and in the test with HSV-1 (setting [2]) was under 100 nM in each case. `NS(=O)(=O)c1sc(N2CCCN(c3ccc(-c4cc(F)ccc4F)cc3)C2=O)nc1Cl` [Compound 171]: the EC50 in the test on HSV-2 G strain (setting [1]) and with HSV-1 (setting [2]) was under 100 nM in each case. For `CNc1cccc(-c2ccc(N3CCCN(c4nc(C)c(S(=O)(=O)NC)s4)C3=O)cc2)n1` [Compound 124], the EC50 with HSV-2 G strain (setting [1]) and in the test with HSV-1 (setting [2]) was under 100 nM each time.

As to `Cc1nc(N2CCCN(c3ccc(-c4cc(F)ccc4F)cc3)C2=O)sc1[S@](C)(=N)=O` (single isomer, unassigned) [Compound 141], the EC50 with HSV-2 G strain (setting [1]) and in the test with HSV-1 (setting [2]) was under 100 nM throughout.

As to `Cc1nc(N2CCCN(c3ccc(-c4cccc(C(F)F)c4)cc3)C2=O)sc1S(N)(=O)=O` [Compound 14], the EC50 with HSV-2 G strain (setting [1]) and in the test on HSV-1 (setting [2]) was under 100 nM each time. Consider `Cc1nc(N2CCCN(c3ccc(-c4ncco4)cc3)C2=O)sc1S(N)(=O)=O` [Compound 41], for which the EC50 with HSV-2 G strain (setting [1]) and in the test on HSV-1 (setting [2]) was 100 to 1000 nM each time. For `Cc1nc(N2CC3(COC3)CN(c3ccc(-c4cc(F)cc(-c5cnn(C(F)F)c5)c4F)cc3)C2=O)sc1S(C)(=O)=O` [Compound 434], the EC50 in the test with HSV-2 G strain (setting [1]) and with HSV-1 (setting [2]) was under 100 nM each time. Regarding `Cc1nc(N2C[C@H](C#N)CN(c3ccc(-c4cc(F)ccc4F)cc3)C2=O)sc1S(N)(=O)=O` (single isomer, unassigned) [Compound 376], the EC50 with HSV-2 G strain (160 TCID50 HSV-2 G strain, cell viability) was under 100 nM; in the test on HSV-1 (80 TCID50 HSV-1, 4 days, cell viability) it was under 100 nM. `Cc1nc(N2CCCN(c3ccc(-c4cccc(F)c4F)cc3)C2=O)sc1S(N)(=O)=O` [Compound 6]: the EC50 with HSV-2 G strain (setting [1]) and in the test on HSV-1 (setting [2]) was under 100 nM in each case.

Regarding `Cc1nc(N2CCCN(c3ccc(-c4cccc5cnccc45)cc3)C2=O)sc1S(N)(=O)=O` [Compound 85], the EC50 in the test on HSV-2 G strain (setting [1]) and in the test on HSV-1 (setting [2]) was under 100 nM in each case. As to `Cc1nc(N2CCCN(c3ccc(-c4cccc5c4CC(=O)N5)cc3)C2=O)sc1S(N)(=O)=O` [Compound 76], the 50% effective concentration (EC50) with HSV-1 (setting [2]) fell in the range of 1000 to 5000 nM. For `CC[S@@](=N)(=O)c1sc(N2CCCN(c3ccc(-c4cc(F)ccc4F)cc3)C2=O)nc1C` (single isomer, unassigned) [Compound 149], the EC50 in the test with HSV-1 (setting [2]) lay within 100 to 1000 nM.

With `Cc1nc(N2CCCN(Cc3cccc(-c4cc(F)ccc4F)c3)C2=O)sc1S(=O)(=O)NC1CC1` [Compound 180], the EC50 in the test on HSV-1 (setting [2]) is 100 to 1000 nM. For `Cc1nc(N2CC3(CC3)CN(c3ccc(-c4ccccc4F)cc3)C2=O)sc1S(C)(=N)=O` (stereo not drawn) [Compound 158], the EC50 in the test with HSV-1 (setting [2]) was in the range of 100 to 1000 nM. For `NS(=O)(=O)c1sc(N2CCCN(c3ccc(-c4cc(F)ccc4F)cc3)C2=O)nc1C(F)(F)F` [Compound 169, 2-(3-(2′,5′-Difluoro-[1,1′-biphenyl]-4-yl)-2-oxotetrahydropyrimidin-1(2H)-yl)-4-(trifluoromethyl) thiazole-5-sulfonamide], the EC50 in the test on HSV-1 (setting [2]) is under 100 nM. Still for that read-out and setting: with `Cc1nc(N2CCCN(c3ccc(-c4cc(F)ccc4F)cc3)C2=O)sc1S(=O)(=O)C(C)C` [Compound 162, 1-(2′,5′-Difluoro-[1,1′-biphenyl]-4-yl)-3-(5-(isopropylsulfonyl)-4-methylthiazol-2-yl) tetrahydropyrimidin-2(1H)-one] the figure was 100 to 1000 nM.

With `Cc1nc(N2CCCN(c3ccc(-c4nnco4)cc3)C2=O)sc1S(N)(=O)=O` [Compound 51, 2-(3-(4-(1,3,4-oxadiazol-2-yl)phenyl)-2-oxotetrahydropyrimidin-1(2H)-yl)-4-methylthiazole-5-sulfonamide], in the test on HSV-1 (setting [2]), the EC50 lay within 1000 to 5000 nM.

Regarding `Cc1nc(N2CCCN(c3cnn(-c4ccccc4F)c3)C2=O)sc1S(N)(=O)=O` [Compound 100], in the test with HSV-1 (setting [2]), the EC50 was in the range of 1000 to 5000 nM. Still for that read-out and setting: with `Cc1nc(N2CCCN(c3ccc(-c4cccc5c4ccn5C)cc3)C2=O)sc1S(N)(=O)=O` [Compound 66] the figure was under 100 nM; with `Cc1nc(N2CCCN([C@@H](C)c3cccc(-c4ccccc4F)c3)C2=O)sc1S(N)(=O)=O` (single isomer, unassigned) [Compound 179], 1000 to 5000 nM.

One may read the EC50 as the concentration giving half of the maximal effect.
